Marks after values point to notes of the source that are not given here.
Experiments:
Type in all cases: in vivo
[1] = tested on: Phakopsora pachyrhizi (the causal agent of Asian soybean rust); experiment: Test A: preventive spray on soybean seedlings, Asian soybean rust, visual disease rating; details: soybean seedlings
How it was run: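 Preventive test: soybean seedlings received a run-off spray of compound suspended at the set ppm in 50/50 acetone/water plus 250 ppm PEG400, and one day later a P. pachyrhizi spore inoculum. Visual scoring (0 none to 100 full disease control) followed 24 h saturated incubation and 8 days' growth chamber, both at 22° C.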

[2] = tested on: Zymoseptoria tritici (the causal agent of wheat leaf blotch); experiment: Test B: preventive spray on wheat seedlings, wheat leaf blotch, visual disease rating; details: wheat seedlings
How it was run: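 This is a preventive test: spray application preceded Zymoseptoria tritici spore inoculation by one day. Test suspensions were in acetone/water with 250 ppm PEG400 surfactant, at the listed ppm rate. After 48 h saturated humidity at 24° C and 17 days at 20° C, visual ratings scored control from 0 to 100%.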

[3] = tested on: Puccinia recondita f. sp. tritici (the causal agent of wheat leaf rust); experiment: Test C: preventive spray on wheat seedlings, wheat leaf rust, visual disease rating; details: wheat seedlings
How it was run: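 Wheat seedlings sprayed to run-off with compound in acetone/water (50/50) with 250 ppm PEG400, then inoculated with spores the following day. After 24 h saturated humidity at 20° C. and 6 days in growth chamber at 20° C., disease rated visually as % control relative to untreated controls.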

[4] = Zymoseptoria tritici, 456 h, test suspension 250 ppm
[5] = 10 ppm test suspension, 100 = 100% disease control, 0 = no control
[6] = 250 ppm test suspension, 100 = 100% disease control
[7] = test suspension 10 ppm, 100 = 100% disease control, 0 = no control

C=CCOC(=O)c1cnn(CCCc2ccc(-c3noc(C(F)(F)F)n3)cc2)c1 [compound 373]
Test A disease control rating ([1]; test suspension 250 ppm): 100% | Test B disease control rating ([2]; test suspension 250 ppm): 99* % | Test C disease control rating ([3]; test suspension 250 ppm): 100%

O=C1c2ccccc2C(=O)N1Cc1ccc(-c2noc(C(F)(F)F)n2)cc1 [Compound 90, 2-[[4-[5-(trifluoromethyl)-1,2,4-oxadiazol-3-yl]phenyl]methyl]-1H-isoindole-1,3(2H)-dione]
pest or weed control at 250 µg/mL ([1]; Phakopsora pachyrhizi, 216 h, test suspension 250 ppm): 100% | pest or weed control at 250 µg/mL [2, 4]: 33% | pest or weed control at 250 µg/mL ([3]; Puccinia recondita, 168 h, test suspension 250 ppm): 99%

COC(=O)c1ccc(Cn2cc(-c3noc(C(F)(F)F)n3)cn2)cc1 [compound 311]
Test A disease control rating ([1]; test suspension 50 ppm): 0% | Test B disease control rating ([2]; test suspension 250 ppm): 0* % | Test C disease control rating ([3]; test suspension 50 ppm): 0%

CCOC(=O)c1cnn(Cc2cccc(-c3noc(C(F)(F)F)n3)c2)c1 [compound 276]
pest or weed control at 50 µg/mL ([1]; Phakopsora pachyrhizi, 216 h, test suspension 50 ppm): 100% | pest or weed control at 250 µg/mL [2, 4]: 35% | pest or weed control at 50 µg/mL ([3]; Puccinia recondita, 168 h, test suspension 50 ppm): 80%

FC(F)(F)c1nc(-c2ccc(Cn3ccc(-c4ccc(Cl)cc4)n3)cc2)no1 [compound 122]
Test A disease control rating ([1]; test suspension 250 ppm): 100% | Test B disease control rating ([2]; test suspension 250 ppm): 0% | Test C disease control rating ([3]; test suspension 250 ppm): 68%

CCOC(=O)c1cccc(Cc2ccc(-c3noc(C(F)(F)F)n3)cc2)c1 [Compound 454]
Test A disease control rating [1, 5]: 100% | Test B disease control rating [2, 6]: 47* % | Test C disease control rating [3, 5]: 0%

COCCOC(=O)c1cnn(Cc2ccc(-c3noc(C(F)(F)F)n3)cc2)c1 [compound 59]
Test A disease control rating [1, 7]: 100% | Test B disease control rating ([2]; test suspension 100 ppm (** next to rating)): 58** % | Test C disease control rating ([3]; test suspension 10 ppm): 100%

CCCOC(=O)c1cnn(CCCc2ccc(-c3noc(C(F)(F)F)n3)cc2)c1 [compound 365]
Test A disease control rating ([1]; test suspension 50 ppm): 100% | Test B disease control rating ([2]; test suspension 250 ppm): 80* % | Test C disease control rating ([3]; test suspension 50 ppm): 99%

CCOC(=O)c1cnn(Cn2cc(-c3noc(C(F)(F)F)n3)cn2)c1 [compound 305]
Test A disease control rating ([1]; test suspension 50 ppm): 44% | Test B disease control rating ([2]; test suspension 250 ppm): 0* % | Test C disease control rating ([3]; test suspension 50 ppm): 0%

O=C(CCl)COC(=O)c1cnn(Cc2ccc(-c3noc(C(F)(F)F)n3)cc2)c1 [compound 495]
Test A disease control rating [1, 5]: 100% | Test B disease control rating [2, 6]: 43* % | Test C disease control rating [3, 5]: 0%

Cn1c(C(F)(F)F)nn(CCc2ccc(-c3noc(C(F)(F)F)n3)cc2)c1=O [compound 239]
Test A disease control rating ([1]; test suspension 250 ppm): 100% | Test B disease control rating ([2]; test suspension 250 ppm): 0% | Test C disease control rating ([3]; test suspension 250 ppm): 100%

N#CCNC(=O)c1cnn(COc2ccc(-c3noc(C(F)(F)F)n3)cc2)c1 [compound 214]
Test A disease control rating [1, 7]: 100% | Test B disease control rating ([2]; test suspension 250 ppm): 73* % | Test C disease control rating ([3]; test suspension 10 ppm): 74%

CCOC(=O)c1cn(Cc2ccc(-c3noc(C(F)(F)F)n3)cc2)nc1C(F)(F)F [compound 111]
Test A disease control rating ([1]; test suspension 255 ppm): 100% | Test B disease control rating ([2]; test suspension 255 ppm): 0% | Test C disease control rating ([3]; test suspension 255 ppm): 86%

O=C(NCC(F)(F)C(F)(F)F)c1coc(Cc2ccc(-c3noc(C(F)(F)F)n3)cc2)n1 [compound 328]
Test A disease control rating [1, 7]: 100% | Test B disease control rating ([2]; test suspension 250 ppm): 0* % | Test C disease control rating ([3]; test suspension 10 ppm): 100%

N#CCNC(=O)c1cccc(Cc2ccc(-c3noc(C(F)(F)F)n3)cc2)c1 [compound 285]
Test A disease control rating [1, 7]: 100% | Test B disease control rating ([2]; test suspension 250 ppm): 94* % | Test C disease control rating ([3]; test suspension 10 ppm): 97%

C#CCNC(=O)C1=NOC(Cc2ccc(-c3noc(C(F)(F)F)n3)cc2)C1 (stereo not drawn) [compound 176]
Test A disease control rating ([1]; test suspension 250 ppm): 100% | Test B disease control rating ([2]; test suspension 250 ppm): 92% | Test C disease control rating ([3]; test suspension 250 ppm): 100%

FC(F)(F)c1nc(-c2ccc(CN3CCC4(CC3)OCCO4)cc2)no1 [compound 149]
Test A disease control rating ([1]; test suspension 260 ppm): 100% | Test B disease control rating ([2]; test suspension 260 ppm): 72% | Test C disease control rating ([3]; test suspension 260 ppm): 100%

O=C(NCCC(F)(F)F)c1csc(COc2ccc(-c3noc(C(F)(F)F)n3)cc2)n1 [compound 472]
Test A disease control rating [1, 5]: 77% | Test B disease control rating [2, 6]: 22* % | Test C disease control rating [3, 5]: 0%

CON=Cc1cnn(Cc2ccc(-c3noc(C(F)(F)F)n3)cc2)c1 [compound 25]
Test A disease control rating ([1]; test suspension 250 ppm): 100% | Test B disease control rating ([2]; test suspension 250 ppm): 86* % | Test C disease control rating ([3]; test suspension 250 ppm): 100%

CON=C(CCl)COC(=O)c1cnn(Cc2ccc(-c3noc(C(F)(F)F)n3)cc2)c1 [compound 494]
Test A disease control rating [1, 5]: 100% | Test B disease control rating [2, 6]: 47* % | Test C disease control rating [3, 5]: 0%

O=C(NCC(F)(F)F)c1coc(Cc2ccc(-c3noc(C(F)(F)F)n3)cc2)c1 [compound 291]
Test A disease control rating [1, 7]: 100% | Test B disease control rating ([2]; test suspension 250 ppm): 13* % | Test C disease control rating ([3]; test suspension 10 ppm): 97%

CCOC(=O)c1cnn(CCn2nc(-c3noc(C(F)(F)F)n3)ccc2=O)c1 [compound 347]
Test A disease control rating [1, 7]: 0% | Test B disease control rating ([2]; test suspension 250 ppm): 0* % | Test C disease control rating ([3]; test suspension 10 ppm): 0%

FC(F)(F)c1nc(-c2ccc(OCc3nc4ccccc4o3)cc2)no1 [compound 355]
Test A disease control rating [1, 7]: 0% | Test B disease control rating ([2]; test suspension 250 ppm): 4* % | Test C disease control rating ([3]; test suspension 10 ppm): 0%

O=C(NCC1CC1)c1coc(Cc2ccc(-c3noc(C(F)(F)F)n3)cc2)n1 [compound 327]
Test A disease control rating [1, 7]: 100% | Test B disease control rating ([2]; test suspension 250 ppm): 94* % | Test C disease control rating ([3]; test suspension 10 ppm): 100%

CCOC(=O)c1cnn(C(C)c2ccc(-c3noc(C(F)(F)F)n3)cc2)c1 (stereo not drawn) [Compound 2, ethyl 1-[1-[4-[5-(trifluoromethyl)-1,2,4-oxadiazol-3-yl]phenyl]ethyl]-1H-pyrazole-4-carboxylate]
pest or weed control at 10 µg/mL ([1]; Phakopsora pachyrhizi, 216 h, test suspension 10 ppm, 100 = 100% disease control, 0 = no control, read-out: Test A disease control rating): 100% | pest or weed control at 100 µg/mL ([2]; Zymoseptoria tritici, 456 h, test suspension 100 ppm (** next to rating), read-out: Test B disease control rating): 98% | pest or weed control at 10 µg/mL ([3]; Puccinia recondita, 168 h, test suspension 10 ppm, read-out: Test C disease control rating): 99%

O=C(c1coc(Cc2ccc(-c3noc(C(F)(F)F)n3)cc2)n1)N1CCC(F)(F)C1 [Compound 402, (3,3-difluoro-1-pyrrolidinyl)[2-[[4-[5-(trifluoromethyl)-1,2,4-oxadiazol-3-yl]phenyl]methyl]-4-oxazolyl]methanone]
pest or weed control at 10 ppm ([1]; Phakopsora pachyrhizi, 216 h, 10 ppm test suspension, 100 = 100% disease control, 0 = no control): 100% | pest or weed control at 250 ppm ([2]; Zymoseptoria tritici, 456 h, 250 ppm test suspension, 100 = 100% disease control): 96% | pest or weed control at 10 ppm ([3]; Puccinia recondita, 168 h, 10 ppm test suspension, 100 = 100% disease control, 0 = no control): 90%

CCN(CC)C(=O)c1coc(Cc2ccc(-c3noc(C(F)(F)F)n3)cc2)n1 [compound 262]
Test A disease control rating [1, 7]: 100% | Test B disease control rating ([2]; test suspension 250 ppm): 96* % | Test C disease control rating ([3]; test suspension 10 ppm): 98%

O=C(NCC1CC1)c1csc(Cc2ccc(-c3noc(C(F)(F)F)n3)cc2)c1 [compound 290]
Test A disease control rating [1, 7]: 100% | Test B disease control rating ([2]; test suspension 250 ppm): 53* % | Test C disease control rating ([3]; test suspension 10 ppm): 100%

CC(C)(C#N)NC(=O)c1coc(Cc2ccc(-c3noc(C(F)(F)F)n3)cc2)n1 [compound 230]
Test A disease control rating [1, 7]: 100% | Test B disease control rating ([2]; test suspension 250 ppm): 99* % | Test C disease control rating ([3]; test suspension 10 ppm): 99%

CCCc1nn(Cc2ccc(-c3noc(C(F)(F)F)n3)cc2)c(=O)n1C [compound 238]
Test A disease control rating ([1]; test suspension 250 ppm): 100% | Test B disease control rating ([2]; test suspension 250 ppm): 87% | Test C disease control rating ([3]; test suspension 250 ppm): 100%

FC(F)(F)c1nc(-c2ccc(Cn3nnc4ccccc43)cc2)no1 [compound 92]
Test A disease control rating ([1]; test suspension 250 ppm): 0% | Test B disease control rating ([2]; test suspension 250 ppm): 96% | Test C disease control rating ([3]; test suspension 250 ppm): 100%

CCOC(=O)c1ccc(Cc2ccc(-c3noc(C(F)(F)F)n3)cc2)cc1 [compound 453]
Test A disease control rating [1, 5]: 92% | Test B disease control rating [2, 6]: 50* % | Test C disease control rating [3, 5]: 0%

FC(F)(F)c1nc(-c2ccc(OCc3cccnc3)cc2)no1 [Compound 353]
Test A disease control rating [1, 7]: 0% | Test B disease control rating ([2]; test suspension 250 ppm): 73* % | Test C disease control rating ([3]; test suspension 10 ppm): 0%

CC(C)COC(=O)c1coc(Cc2ccc(-c3noc(C(F)(F)F)n3)cc2)n1 [compound 335]
Test A disease control rating [1, 7]: 100% | Test B disease control rating ([2]; test suspension 250 ppm): 73* % | Test C disease control rating ([3]; test suspension 10 ppm): 94%

COCCNC(=O)c1csc(COc2ccc(-c3noc(C(F)(F)F)n3)cc2)n1 [compound 469]
Test A disease control rating [1, 5]: 96% | Test B disease control rating [2, 6]: 65* % | Test C disease control rating [3, 5]: 86%

O=C(NCC(F)(F)F)c1csc(Cc2ccc(-c3noc(C(F)(F)F)n3)cc2)c1 [compound 286]
Test A disease control rating [1, 7]: 100% | Test B disease control rating ([2]; test suspension 250 ppm): 3* % | Test C disease control rating ([3]; test suspension 10 ppm): 100%

FC(F)(F)c1nc(-c2ccc(Cn3ccc(-c4ccccc4)n3)cc2)no1 [Compound 85]
Test A disease control rating ([1]; test suspension 50 ppm): 100*** % | Test B disease control rating ([2]; test suspension 250 ppm): 9% | Test C disease control rating ([3]; test suspension 250 ppm): 100%

Source: US20240090503A1, “FUNGICIDAL OXADIAZOLES AND THEIR MIXTURES” (FMC CORPORATION, priority 2020, published 2024)
